Reference: patent publication EP3763715A1, “HARRINGTONINES SALTS, IN PARTICULAR RETINOATES, THEIR PROCESS OF PREPARATION AND THEIR USES IN THE TREATMENT OF LEUKEMIAS, CANCERS, AUTOIMMUNE, SKIN, ALZHEIMER'S AND INFLAMMATORY BOWEL DISEASES AND VIRAL INFECTIONS, COMBINED WITH MYELOPOIESIS STIMULATING AGENTS” (Robin, Jean-Pierre, priority 2019, dated 2021)

Assays:
Type in all cases: cell-based, human
[1] = test system: HL-60 cell line; assay: Testing on HL-60 leukemia cell line (MTT cytotoxicity); details: HL-60 cells, medium with 20% fetal bovine serum, preliminary screening, read-out: HL60 (APL) IC50
Experimental: (§1) Retinoates of harringtonines described in this invention were tested on K562 cell line which is derived from the pleural effusion of a person with chronic myelogenous leukemia (CML, bcr-abl positive) in terminal blast crises (Lozzio and Lozzio, Blood, 1975, p321). The cell line was purchased from ATCC (American Tissue Culture Collection) and grown in RPMI medium supplemented with 10% heat-inactivated fetal calf serum, 2 mmol/L glutamine, […] penicillin and […] streptomycin. All tested products were initially dissolved in 2N HCl (pH=2) (alkaloid base) or in aqueous solvent (salt) or in DMSO (retinoids), supplemented with ultrasound treatment during 1 h. Working concentrations were made by dilution in culture medium (pH 7). Cells in exponential growth phase were placed into 96-microwell plates in concentration 3x10^4/mL (total volume 200 µL/well) and incubated with drugs for 72 h at 37° C. in 5% CO2 humidified atmosphere. Following incubation, 28 µL of MTT 3-(4,5 dimethylthiazol-2-yl)-2,5 tetrazolium bromide] dye solution (Sigma, St. Louis, Mo.) was added to each well. During the following 6 h of incubation at 37° C., the purple formazan product was formed by conversion of the yellow MTT salt in the mitochondria of the viable cells. The resulting precipitate was dissolved in DMSO and the amount of converted MTT was quantified in an ELISA reader (MR 5000, Dynatech). Each product was tested in triplicate (3x8 wells). Every test contained at least one plate with HHT as control, added in the same concentration as the tested products.
Retinoates of harringtonines described in this invention were tested on HL-60 cell line, derived from acute promyelocytic leukemia (APL) cells. HL-60 is a promyelocytic cell line derived by S.J. Collins, et al. (Proc. Natl. Acad. Sci. USA 1978 p2458). Peripheral blood leukocytes were obtained by leukopheresis from a person with APL (Gallagher R, et al. Blood 1978, p713) The cell line was purchased from ATCC (American Tissue Culture Collection) and the base growth medium was also completed with fetal bovine serum but at a final concentration of 20%, otherwise the same method than the one of example 10 was used.
Preliminary screening using this tumor cell lines are gathered in table 1.

[2] = test system: K562 cell line; assay: Testing on K562 leukemia cell line (MTT cytotoxicity); details: K562 cells, 72 h incubation, preliminary screening, read-out: K562 (CML) IC50
Experimental: as §1

[3] = test system: MDA-MB-468; assay: Testing on breast cancer cell lines, sulforhodamine B (SRB) cell viability assay; details: MDA-MB-468 breast cancer cells, preliminary screening, read-out: M DA-MB-468 (BC) IC50
Experimental: Operating Procedure were performed as described in the recent paper of Yakhni et al [Yakhni AM J CANCER RES 2019; 9(5) in press "Homoharringtonine, on approved anti-leukemia drug, suppresses triple negative breast cancer growth through a rapid reduction of anti-apoptotic protein abundance"]
The cell lines used in this study were MDA-MB-231 (ATCC® HTB-26™), MDA-MB-468 (ATCC® HTB-132™), MDA-MB-157 (ATCC® HTB-24™) and CAL-51. Those lines were chosen to represent the BRCA1/2 non-mutated TNBC transcriptomic subtypes, currently most in need of efficacious treatment due to lower sensibility of BRCA1 wild-type TNBC to the DNA-damaging chemotherapy (Masuda et al., Clin Cancer Res. 2013, p5533; Jiang et al., PLoS Med. 2016, pe1002193; Park et al. ESMO Open. 2018, pe000357). CAL-51 line represents the mesenchymal transcriptomic subtype whereas MDA-MB-157 and MDA-MB-231 represent the mesenchymal stem-like subtype (Lehmann et al. J Clin Invest. 2011, p2750). MDA-MB-468 was used as a model of aggressive, PTEN-negative TNBC, with hyperactivated EGFR signaling pathway due to EGFR amplification (Filmus et al., Biochem Biophys Res Commun. 1985, p898). MDA-MB-468 transcriptome classifies it into the basal-like 1 subtype (49). The MDA lines were purchased from the American Type Culture Collection (ATCC, Manassas, VA, USA). The CAL-51 was kindly provided by Dr Gerard Milano, from the Centre Antoine Lacassagne, Nice, France, where the line has been established (Gioanni et al., Br J Cancer 1990, p8). After initial expansion, the cell line stock vials were conserved, in liquid nitrogen, at the Biological Resource Center of Jean Perrin Comprehensive Cancer Center (biobank ID BB-0033-00075, Clermont-Ferrand, France). The MDA cell lines were cultured in the Leibovitz L-15 medium, whereas CAL-51 line was maintained in DMEM (both media from Invitrogen Life Technologies, Carlsbad, CA, USA). The media were supplemented with 10% heat-inactivated fetal bovine serum and […] gentamicin. CAL-51 line was kept at 37°C, in a humidified atmosphere with 5% CO2; the MDA lines were kept under the same conditions, however, without CO2, in a free gas exchange with atmospheric air. All cell lines were maintained in monolayer culture, in the sub-confluent status, with no more 30 passages of the cells thawed from the stock vial.
Homoharringtonine was supplied by LeukePharma Inc. (Houston, TX, USA) as water-soluble, crystalline tartaric acid salt. Initial stock solution of HHT-tartrate was prepared at 10 mM in sterile deionized water, aliquoted and kept at -80°C. For each experiment, a fresh HHT solution was prepared by dissolving the HHT stock in phosphate-buffered saline (PBS, GIBCO™, Invitrogen, Cergy-Pontoise, France).
Cell viability was assessed using the sulforhodamine B (SRB) assay (Sigma-Aldrich, St Louis, MO, USA) according to the method described by Vichai and Kirtikara (Nat Protoc. 2006, p1112). Cells were seeded in 96-well plates, at 5x10^3 or 1x10^3 cells/well (the MDA cell lines and CAL-51, respectively), left overnight to adhere and then treated with growing concentrations of HHT for 24h, 48h or 72h. After incubation with the drug, cells were washed twice with PBS and left for 72 h in the corresponding complete culture medium. Then the cells were fixed with trichloroacetic acid (final concentration 10%) at 4°C for 1 h, followed with plate washing with water five times, air drying and staining with 0.4% SRB dissolved in 1% acetic acid, at room temperature, for 30 min. The plates were subsequently washed four times with 1% acetic acid to remove unbound stain. To solubilize the protein-bound dye, 10 mM Tris base solution was added to each well. The cell viability, estimated through the present protein biomass, was determined by measuring optical density of the dye, using a spectrophotometer at wavelength of 540 nm (BMG Labtech, Ortenberg, Germany).
Preliminary screening using these tumor cell lines are gathered in table 1.

Row | Molecule | IC50 [1] [nM] | IC50 [2] [nM] | IC50 [3] [nM]
1 | COC(=O)CC(O)(CCCC(C)(C)O)C(=O)OC1C(OC)=CC23CCCN2CCc2cc4c(cc2C13)OCO4.COc1cc(C)c(C=CC(C)=CC=CC(C)=CC(=O)O)c(C)c1C (stereo not drawn) [Example 4, homoharringtonine "acitretinoate"] | < 100 | < 50 | 
2 | OP5215 acitretinate [Example 25] | < 50 | < 20 | < 20
3 | CC(=Cc1ccc(C(=O)O)cc1)c1ccc2c(c1)C(C)(C)CCC2(C)C.COC(=O)CC(O)(CCCC(C)(C)O)C(=O)OC1C(OC)=CC23CCCN2CCc2cc4c(cc2C13)OCO4 (stereo not drawn) [Example 13, homoharringtonine arotinoate] |  | < 50 | 
4 | C=C(c1ccc(C(=O)O)cc1)c1cc2c(cc1C)C(C)(C)CCC2(C)C.COC(=O)C[C@](O)(CCCC(C)(C)O)C(=O)O[C@@H]1C(OC)=C[C@]23CCCN2CCc2cc4c(cc2[C@H]13)OCO4 [Example 7, homoharringtonine "bexarotenoate"] | < 20 | < 20 | < 20
5 | CC(C=CC1=C(C)CCCC1(C)C)=CC=CC(C)=CC(=O)O.COC(=O)CC(O)(CCCC(C)(C)O)C(=O)OC1C(OC)=CC23CCCN2CCc2cc4c(cc2C13)OCO4 (stereo not drawn) [Example 3, homoharringtonine 13-cis-retinoate] |  | < 50 | 
6 | CC1(C)CCC(C)(C)c2cc(C(=O)Nc3ccc(C(=O)O)cc3)ccc21.COC(=O)C[C@](O)(CCCC(C)(C)O)C(=O)O[C@@H]1C(OC)=C[C@]23CCCN2CCc2cc4c(cc2[C@H]13)OCO4 [Example 23, homoharringtonine Am 580 salt] | < 100 | < 50 | < 50
7 | CC1(C)C(=O)C(C)(C)c2cc(C(=O)Nc3ccc(C(=O)O)cc3)ccc21.COC(=O)CC(O)(CCCC(C)(C)O)C(=O)O[C@@H]1C(OC)=C[C@]23CCCN2CCc2cc4c(cc2[C@H]13)OCO4 (stereo partly drawn) [Example 15, Butanedioic acid, 2-hydroxy-2-(4-hydroxy-4-methylpentyl)-, 1-[(1S,3aR,14bS)-1,5,6,8,9,14b-hexahydro-2-methoxy-4H-cyclopenta[a][1,3]dioxolo[4,5-h]pyrrolo[2,1-b][3]benzazepin-1-yl]4-methyl ester, 4-[[(2,3-Dihydro-1,1,3,3-tetramethyl-2-oxo-1H-inden-5-yl)carbonyl]amino]benzoate] | < 100 | < 50 | < 50
8 | COC(=O)C[C@](O)(CCC(C)(C)O)C(=O)O[C@@H]1C(OC)=C[C@]23CCCN2CCc2cc4c(cc2[C@H]13)OCO4.COc1ccc(-c2ccc3cc(C(=O)O)ccc3c2)cc1C12CC3CC(CC(C3)C1)C2 [Example 9, harringtonine "adapalenoate"] |  | < 100 | 
9 | COC(=O)CC(O)(CCCC(C)(C)O)C(=O)OC1C(OC)=CC23CCCN2CCc2cc4c(cc2C13)OCO4.O=C(O)C=Cc1ccc(-c2ccc(O)c(C34CC5CC(CC(C5)C3)C4)c2)cc1 (stereo not drawn) [Example 6, homoharringtonine "adarotenoate"] | < 100 | < 50 | 
10 | CC1(C)CCC(C)(C)c2cc(NC(=O)c3ccc(C(=O)O)cc3)ccc21.COC(=O)CC(O)(CCCC(C)(C)O)C(=O)OC1C(OC)=CC23CCCN2CCc2cc4c(cc2C13)OCO4 (stereo not drawn) [Example 5, homoharringtonine tamibarotenoate] | < 50 | < 20 | < 20
11 | CC1=C(/C=C/C(C)=C/C=C/C(C)=C/C(=O)O)C(C)(C)CCC1.COC(=O)C[C@@]1(C(=O)O[C@@H]2C(OC)=C[C@]34CCCN3CCc3cc5c(cc3[C@H]24)OCO5)CCCC(C)(C)O1 (relative stereo) [Example 18, Anhydrohomoharringtonine all-trans-retinoate] | < 100 | < 50 | < 50
12 | COC(=O)CC(O)(CCC(C)(C)O)C(=O)OC1C(OC)=CC23CCCN2CCc2cc4c(cc2C13)OCO4.COc1cc(C)c(C=CC(C)=CC=CC(C)=CC(=O)O)c(C)c1C (stereo not drawn) [Example 17, harringtonine acitretinate] | < 100 | < 50 | 
13 | OP5215 tamibarotenoate [Example 26] | < 20 | < 10 | < 10
14 | OP5215, Am 580 salt [Example 27] | < 20 | < 10 | < 10
15 | CC(=Cc1ccc(C(=O)O)cc1)c1ccc2c(c1)C(C)(C)CCC2(C)C.COC(=O)CC(O)(CCC(C)(C)O)C(=O)OC1C(OC)=CC23CCCN2CCc2cc4c(cc2C13)OCO4 (stereo not drawn) [Example 14, harringtonine arotinoate] |  | < 100 | 
16 | COC(=O)CC1(C(=O)OC2C(OC)=CC34CCCN3CCc3cc5c(cc3C24)OCO5)CCCC(C)(C)O1.COc1cc(C)c(C=CC(C)=CC=CC(C)=CC(=O)O)c(C)c1C (stereo not drawn) [Example 19, anhydrohomoharringtonine "acitretinoate"] |  | > 100 | > 100
17 | COC(=O)CC(O)(CCCC(C)(C)O)C(=O)O[C@@H]1C(OC)=C[C@]23CCCN2CCc2cc4c(cc2[C@H]13)OCO4.Cc1ccc(C2=CCC(C)(C)c3ccc(C#Cc4ccc(C(=O)O)cc4)cc32)cc1 (stereo partly drawn) [Example 16, Butanedioic acid, 2-hydroxy-2-(4-hydroxy-4-methylpentyl)-, 1-[(1S,3aR,14bS)-1,5,6,8,9,14b-hexahydro-2-methoxy-4H-cyclopenta[a][1,3]dioxolo[4,5-h]pyrrolo[2,1-b][3]benzazepin-1-yl]4-methyl ester, 4-[[5,6-dihydro-5,5-dimethyl-8-(4-methylphenyl)-2-naphthalenyl]ethynyl]benzoate] | < 100 | < 50 | 
18 | OP5215 all-trans-retinoate [Example 24] | < 100 | < 50 | 
19 | CC(C=CC1=C(C)CCCC1(C)C)=CC=CC(C)=CC(=O)O.COC(=O)CC(O)(CCC(C)(C)O)C(=O)OC1C(OC)=CC23CCCN2CCc2cc4c(cc2C13)OCO4 (stereo not drawn) [Example 2, harringtonine all-trans-retinoate] | > 100 | < 100 | 
